Columns and labels:
Format in all cases: functional
K562 [1] = assay: Growth inhibition of human K562 cells assessed as cell growth at 1 mM after 48 hrs by SRB assay; conditions: K562, 48 h, read-out: Activity
K562 [2] = assay: Growth inhibition of human K562 cells assessed as cell growth at 0.1 uM after 48 hrs by SRB assay; conditions: K562, 48 h, read-out: Activity
SW-620 [3] = assay: Growth inhibition of human SW620 cells assessed as cell growth at 1 uM after 48 hrs by SRB assay; conditions: SW-620, 48 h, read-out: Activity
T47D = assay: Growth inhibition of human T47D cells assessed as cell growth at 100 uM after 48 hrs by SRB assay; conditions: read-out: Activity
MOLT-4 [4] = assay: Growth inhibition of human MOLT4 cells after 48 hrs by […] growth inhibition assay; conditions: MOLT-4, 48 h
SR [5] = assay: Growth inhibition of human SR cells assessed as cell growth at 100 uM after 48 hrs by SRB assay; conditions: read-out: Activity
SW-620 [6] = assay: Growth inhibition of human SW620 cells assessed as cell growth at 1 mM after 48 hrs by SRB assay; conditions: SW-620, 48 h, read-out: Activity
M14 = assay: Growth inhibition of human M14 cells assessed as cell growth at 0.1 uM after 48 hrs by SRB assay; conditions: M14, 48 h, read-out: Activity
NCI/ADR-RES = assay: Growth inhibition of human NCI/ADR-RES cells assessed as cell growth at 1 mM after 48 hrs by SRB assay; conditions: read-out: Activity
[7] = Growth inhibition of human Hs 578T cells after 48 hrs by […] growth inhibition assay
[8] = Growth inhibition of human Hs 578T cells assessed as cell growth at 100 uM after 48 hrs by SRB assay; conditions: read-out: Activity
[9] = Growth inhibition of human Hs 578T cells assessed as cell growth at 1 mM after 48 hrs by SRB assay; conditions: read-out: Activity
K562 [10] = assay: Growth inhibition of human K562 cells after 48 hrs by […] growth inhibition assay; conditions: K562, 48 h
SW-620 [11] = assay: Growth inhibition of human SW620 cells after 48 hrs by […] growth inhibition assay; conditions: SW-620, 48 h
[12] = Growth inhibition of human Hs 578T cells assessed as cell growth at 1 uM after 48 hrs by SRB assay; conditions: read-out: Activity
SW-620 [13] = assay: Growth inhibition of human SW620 cells assessed as cell growth at 0.1 uM after 48 hrs by SRB assay; conditions: SW-620, 48 h, read-out: Activity
PC-3 [14] = assay: Growth inhibition of human PC3 cells assessed as cell growth at 0.1 uM after 48 hrs by SRB assay; conditions: PC-3, 48 h, read-out: Activity
SR [15] = assay: Growth inhibition of human SR cells assessed as cell growth at 1 mM after 48 hrs by SRB assay; conditions: read-out: Activity
MOLT-4 [16] = assay: Growth inhibition of human MOLT4 cells assessed as cell growth at 100 uM after 48 hrs by SRB assay; conditions: MOLT-4, 48 h, read-out: Activity
MDA-MB-231 [17] = assay: Growth inhibition of human MDA-MB-231 cells assessed as cell growth at 1 mM after 48 hrs by SRB assay; conditions: MDA-MB-231, 48 h, read-out: Activity
SK-MEL-28 [18] = assay: Growth inhibition of human SK-MEL-28 cells assessed as cell growth at 1 mM after 48 hrs by SRB assay; conditions: SK-MEL-28, 48 h, read-out: Activity
HL-60(TB) [19] = assay: Growth inhibition of human HL-60(TB) cells after 48 hrs by […] growth inhibition assay; conditions: HL-60, 48 h
MOLT-4 [20] = assay: Growth inhibition of human MOLT4 cells assessed as cell growth at 0.1 uM after 48 hrs by SRB assay; conditions: MOLT-4, 48 h, read-out: Activity
MDA-MB-231 [21] = assay: Growth inhibition of human MDA-MB-231 cells assessed as cell growth at 100 uM after 48 hrs by SRB assay; conditions: MDA-MB-231, 48 h, read-out: Activity
SW-620 [22] = assay: Growth inhibition of human SW620 cells assessed as cell growth at 10 uM after 48 hrs by SRB assay; conditions: SW-620, 48 h, read-out: Activity
K562 [23] = assay: Growth inhibition of human K562 cells assessed as cell growth at 1 uM after 48 hrs by SRB assay; conditions: K562, 48 h, read-out: Activity
PC-3 [24] = assay: Growth inhibition of human PC3 cells assessed as cell growth at 1 uM after 48 hrs by SRB assay; conditions: PC-3, 48 h, read-out: Activity
SR [25] = assay: Growth inhibition of human SR cells assessed as cell growth at 1 uM after 48 hrs by SRB assay; conditions: read-out: Activity
SK-MEL-28 [26] = assay: Growth inhibition of human SK-MEL-28 cells assessed as cell growth at 0.1 uM after 48 hrs by SRB assay; conditions: SK-MEL-28, 48 h, read-out: Activity
HCT-116 = assay: Growth inhibition of human HCT116 cells assessed as cell growth at 100 uM after 48 hrs by SRB assay; conditions: HCT-116, 48 h, read-out: Activity
IGROV-1 = assay: Growth inhibition of human IGROV1 cells assessed as cell growth at 1 mM after 48 hrs by SRB assay; conditions: IGROV-1, 48 h, read-out: Activity
HL-60(TB) [27] = assay: Growth inhibition of human HL-60(TB) cells assessed as cell growth at 0.1 uM after 48 hrs by SRB assay; conditions: HL-60, 48 h, read-out: Activity
[28] = Growth inhibition of human Hs 578T cells assessed as cell growth at 0.1 uM after 48 hrs by SRB assay; conditions: read-out: Activity
MOLT-4 [29] = assay: Growth inhibition of human MOLT4 cells assessed as cell growth at 1 uM after 48 hrs by SRB assay; conditions: MOLT-4, 48 h, read-out: Activity
MCF7 = assay: Growth inhibition of human MCF7 cells assessed as cell growth at 1 mM after 48 hrs by SRB assay; conditions: Homo sapiens, MCF7, 48 h; read-out: Activity
PC-3 [30] = assay: Growth inhibition of human PC3 cells assessed as cell growth at 1 mM after 48 hrs by SRB assay; conditions: PC-3, 48 h, read-out: Activity
SR [31] = assay: Growth inhibition of human SR cells assessed as cell growth at 0.1 uM after 48 hrs by SRB assay; conditions: read-out: Activity
HL-60(TB) [32] = assay: Growth inhibition of human HL-60(TB) cells assessed as cell growth at 1 mM after 48 hrs by SRB assay; conditions: HL-60, 48 h, read-out: Activity
[33] = read-out: LC50 (the source's name)
[34] = read-out: pLC50 (the source's name) (converted)

CCOC(=O)C[C@H]1[C@@H](O[Si](C)(C)C(C)(C)C)[C@H](n2cnc3c(NC(=O)Nc4ccccc4)ncnc32)O[C@@H]1CNC(=O)NC
growth at 1000 µM (K562 [1]): -17%
growth at 0.1 µM (K562 [2]): 96%
growth at 1 µM (SW-620 [3]): 94%
growth at 100 µM (T47D): 16%
GI50 (MOLT-4 [4]; read-out: GI50): 2.39 µM
LC50 (MOLT-4 [4]; read-out: LC50): > 100 µM
TGI (MOLT-4 [4]; read-out: TGI): 23.3 µM
GI50 (MOLT-4 [4]; read-out: pGI50 (converted)): 2.4 µM
LC50 (MOLT-4 [4]; read-out: pLC50 (converted)): > 100 µM
TGI (MOLT-4 [4]; read-out: pTGI (converted)): 23.4 µM
growth at 100 µM (SR [5]): -15%
growth at 1000 µM (SW-620 [6]): -33%
growth at 0.1 µM (M14): 90%
growth at 1000 µM (NCI/ADR-RES): 59%
GI50 ([7]; read-out: GI50): 3.6 µM
CC50 [7, 33]: > 100 µM
TGI ([7]; read-out: TGI): 53.6 µM
GI50 ([7]; read-out: pGI50 (converted)): 3.63 µM
CC50 [7, 34]: > 100 µM
TGI ([7]; read-out: pTGI (converted)): 53.7 µM
growth at 100 µM [8]: 18%
growth at 1000 µM [9]: -7%
GI50 (K562 [10]; read-out: GI50): 3.59 µM
LC50 (concentration killing 50% of cells) (K562 [10]; read-out: LC50): > 100 µM
TGI (K562 [10]; read-out: TGI): 32.9 µM
GI50 (K562 [10]; read-out: pGI50 (converted)): 3.63 µM
LC50 (concentration killing 50% of cells) (K562 [10]; read-out: pLC50 (converted)): > 100 µM
TGI (K562 [10]; read-out: pTGI (converted)): 33.1 µM
GI50 (SW-620 [11]; read-out: GI50): 4.8 µM
CC50 (SW-620 [11]; [33]): > 100 µM
TGI (SW-620 [11]; read-out: TGI): 28.4 µM
GI50 (SW-620 [11]; read-out: pGI50 (converted)): 4.79 µM
CC50 (SW-620 [11]; [34]): > 100 µM
TGI (SW-620 [11]; read-out: pTGI (converted)): 28.2 µM
growth at 1 µM [12]: 95%
growth at 0.1 µM (SW-620 [13]): 97%
growth at 0.1 µM (PC-3 [14]): 121%
growth at 1000 µM (SR [15]): -34%
growth at 100 µM (MOLT-4 [16]): 8%
growth at 1000 µM (MDA-MB-231 [17]): -13%
growth at 1000 µM (SK-MEL-28 [18]): -91%
GI50 (HL-60(TB) [19]; read-out: GI50): 3.01 µM
CC50 (HL-60(TB) [19]; [33]): > 100 µM
GI50 (HL-60(TB) [19]; read-out: pGI50 (converted)): 3.02 µM
CC50 (HL-60(TB) [19]; [34]): > 100 µM
growth at 0.1 µM (MOLT-4 [20]): 93%
growth at 100 µM (MDA-MB-231 [21]): 20%
growth at 10 µM (SW-620 [22]): 97%
growth at 1 µM (K562 [23]): 93%
growth at 1 µM (PC-3 [24]): 126%
growth at 1 µM (SR [25]): 70%
growth at 0.1 µM (SK-MEL-28 [26]): 104%
growth at 100 µM (HCT-116): 23%
growth at 1000 µM (IGROV-1): -58%
growth at 0.1 µM (HL-60(TB) [27]): 85%
growth at 0.1 µM [28]: 94%
growth at 1 µM (MOLT-4 [29]): 84%
growth at 1000 µM (MCF7): -8%
growth at 1000 µM (PC-3 [30]): -77%
growth at 0.1 µM (SR [31]): 82%
growth at 1000 µM (HL-60(TB) [32]): 22%
